Compound in one assay: CN1CCN(c2nc(C3=C(c4c[nH]c5ccccc45)C(=O)NC3=O)c3ccccc3n2)CC1 [SOTRASTAURIN/AEB071]
Briefly: surviving fraction relative to DMSO-only wells; higher = less growth inhibition. The conditions noted are these: exposure time: 5 days. The essentials:
(§1)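 Inhibitors were tested at 0.5, 1, 5, 10, 50, 100, 500 and 1000 nM, applied continuously for five days beginning 24 hours after log-phase tumour cells were seeded at 250–500 per well in 384-well plates. CellTiter-Glo luminescence served as the viability measure, expressed as surviving fraction against the median of DMSO-only wells. Each line, screened three times, was kept only with replicate Pearson r >0.7 and median Z' >0.3.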

Compound in a further assay: C[C@]12CC[C@H](O)CC1=CC[C@@H]1[C@@H]2CC[C@]2(C)C(c3cccnc3)=CC[C@@H]12 [ABIRATERONE]
The assay is described as above. Particulars: exposure time: 5 days. The method in brief: as §1

The values below come from the supplement of paper PMC6045584.

± gives the standard deviation of the averaged measurements.

For the test system HCC70 BREAST, the surviving fraction stood at 1.17 ± 0.049 in the assay with SOTRASTAURIN/AEB071 (0.5 nM); 1.05 ± 0.073 in the assay with SOTRASTAURIN/AEB071 (1 nM); 1.1 ± 0.046 in the assay with SOTRASTAURIN/AEB071 (5 nM); 1.14 ± 0.02 with SOTRASTAURIN/AEB071 (10 nM); 1.15 ± 0.024 in the assay with SOTRASTAURIN/AEB071 (50 nM); 1.18 ± 0.038 with SOTRASTAURIN/AEB071 (100 nM). Moreover, the surviving fraction with SOTRASTAURIN/AEB071 (500 nM) was 1.25 ± 0.029; in the assay with SOTRASTAURIN/AEB071 (1000 nM), 1.22 ± 0.06; in the assay with ABIRATERONE (0.5 nM) it was 1.1 ± 0.069; with ABIRATERONE (1 nM), 1.02 ± 0.088; in the assay with ABIRATERONE (5 nM), 1.09 ± 0.026; with ABIRATERONE (10 nM) it was 1.11 ± 0.055. Also, the surviving fraction in the assay with ABIRATERONE (50 nM) was 1.15 ± 0.13; with ABIRATERONE (100 nM) it was 1.14 ± 0.017; with ABIRATERONE (500 nM) it was 1.03 ± 0.076; with ABIRATERONE (1000 nM) it was 0.949 ± 0.098.
Turning to G292 BONE, the surviving fraction was found to be 1.04 ± 0.016 with SOTRASTAURIN/AEB071 (0.5 nM); 1.002 ± 0.0081 with SOTRASTAURIN/AEB071 (1 nM); 1.04 ± 0.057 with SOTRASTAURIN/AEB071 (5 nM); 1.01 ± 0.025 in the assay with SOTRASTAURIN/AEB071 (10 nM); 1.02 ± 0.072 in the assay with SOTRASTAURIN/AEB071 (50 nM); 0.987 ± 0.077 with SOTRASTAURIN/AEB071 (100 nM). For the same test system, the surviving fraction in the assay with SOTRASTAURIN/AEB071 (500 nM) is 0.969 ± 0.024; in the assay with SOTRASTAURIN/AEB071 (1000 nM), 0.982 ± 0.046; with ABIRATERONE (0.5 nM), 1.02 ± 0.028; with ABIRATERONE (1 nM) it was 0.994 ± 0.03; with ABIRATERONE (5 nM), 1.06 ± 0.037; in the assay with ABIRATERONE (10 nM), 1.04 ± 0.026. In addition, the surviving fraction with ABIRATERONE (50 nM) was 1.05 ± 0.038; in the assay with ABIRATERONE (100 nM), 1.05 ± 0.018; in the assay with ABIRATERONE (500 nM), 1.03 ± 0.034; in the assay with ABIRATERONE (1000 nM) it was 1.01 ± 0.029.
In the case of HCC38 BREAST, the surviving fraction in the assay with SOTRASTAURIN/AEB071 (0.5 nM) is 0.974 ± 0.11; with SOTRASTAURIN/AEB071 (1 nM), 0.913 ± 0.14; with SOTRASTAURIN/AEB071 (5 nM) it was 1.02 ± 0.16; in the assay with SOTRASTAURIN/AEB071 (10 nM), 1.16 ± 0.23; in the assay with SOTRASTAURIN/AEB071 (50 nM), 0.851 ± 0.19; in the assay with SOTRASTAURIN/AEB071 (100 nM), 0.874 ± 0.042. Further, the surviving fraction in the assay with SOTRASTAURIN/AEB071 (500 nM) turned out to be 0.759 ± 0.11; with SOTRASTAURIN/AEB071 (1000 nM) it was 0.805 ± 0.12; in the assay with ABIRATERONE (0.5 nM) it was 1.21 ± 0.22; with ABIRATERONE (1 nM), 1.24 ± 0.14; in the assay with ABIRATERONE (5 nM) it was 1.22 ± 0.31; with ABIRATERONE (10 nM), 1.29 ± 0.38. Also, the surviving fraction in the assay with ABIRATERONE (50 nM) turned out to be 1.18 ± 0.41; with ABIRATERONE (100 nM), 1.32 ± 0.18; with ABIRATERONE (500 nM), 1.16 ± 0.12; with ABIRATERONE (1000 nM), 1 ± 0.14.
In the case of HMT3552 BREAST, the surviving fraction in the assay with SOTRASTAURIN/AEB071 (0.5 nM) came out at 0.982 ± 0.13; with SOTRASTAURIN/AEB071 (1 nM), 0.975 ± 0.012; with SOTRASTAURIN/AEB071 (5 nM), 0.984 ± 0.037; in the assay with SOTRASTAURIN/AEB071 (10 nM), 1.04 ± 0.04; with SOTRASTAURIN/AEB071 (50 nM), 1.03 ± 0.059; with SOTRASTAURIN/AEB071 (100 nM), 1.04 ± 0.013. Besides, the surviving fraction came out at 1.3 ± 0.11 in the assay with SOTRASTAURIN/AEB071 (500 nM); 1.24 ± 0.06 with SOTRASTAURIN/AEB071 (1000 nM); 1.05 in the assay with ABIRATERONE (0.5 nM); 1.02 in the assay with ABIRATERONE (1 nM); 1.01 in the assay with ABIRATERONE (5 nM); 1.09 with ABIRATERONE (10 nM). The surviving fraction in the assay with ABIRATERONE (50 nM) is 1.08; in the assay with ABIRATERONE (100 nM) it was 1.07; in the assay with ABIRATERONE (500 nM), 1.32; with ABIRATERONE (1000 nM) it was 1.24.
In the case of CCK81 LARGE INTESTINE, the surviving fraction was 0.811 ± 0.12 with SOTRASTAURIN/AEB071 (0.5 nM); 0.829 ± 0.13 with SOTRASTAURIN/AEB071 (1 nM); 0.892 ± 0.075 with SOTRASTAURIN/AEB071 (5 nM); 0.814 ± 0.079 in the assay with SOTRASTAURIN/AEB071 (10 nM); 0.917 ± 0.0085 in the assay with SOTRASTAURIN/AEB071 (50 nM); 0.866 ± 0.038 in the assay with SOTRASTAURIN/AEB071 (100 nM). Also, the results for the surviving fraction with SOTRASTAURIN/AEB071 (500 nM) and with SOTRASTAURIN/AEB071 (1000 nM) were 0.943 ± 0.088 and 0.83 ± 0.064, respectively.
With HS578T BREAST, the surviving fraction in the assay with SOTRASTAURIN/AEB071 (0.5 nM) is 0.899 ± 0.11; with SOTRASTAURIN/AEB071 (1 nM), 0.861 ± 0.083; with SOTRASTAURIN/AEB071 (5 nM) it was 0.977 ± 0.27; with SOTRASTAURIN/AEB071 (10 nM), 0.954 ± 0.11; in the assay with SOTRASTAURIN/AEB071 (50 nM) it was 1.06 ± 0.16; with SOTRASTAURIN/AEB071 (100 nM), 0.916 ± 0.057. The surviving fraction was determined as 0.877 ± 0.064 with SOTRASTAURIN/AEB071 (500 nM); 1.01 ± 0.17 with SOTRASTAURIN/AEB071 (1000 nM); 1.06 ± 0.16 with ABIRATERONE (0.5 nM); 0.858 ± 0.12 with ABIRATERONE (1 nM); 0.945 ± 0.12 with ABIRATERONE (5 nM); 0.924 ± 0.2 with ABIRATERONE (10 nM). In addition, the surviving fraction was determined as 1.04 ± 0.091 with ABIRATERONE (50 nM), 0.996 ± 0.051 in the assay with ABIRATERONE (100 nM), 0.985 ± 0.065 with ABIRATERONE (500 nM) and 0.94 ± 0.037 in the assay with ABIRATERONE (1000 nM).
On to HMLE3 BREAST, for which the surviving fraction in the assay with SOTRASTAURIN/AEB071 (0.5 nM) amounted to 1.11 ± 0.098; with SOTRASTAURIN/AEB071 (1 nM), 1.1 ± 0.057; with SOTRASTAURIN/AEB071 (5 nM) it was 1.15 ± 0.034; in the assay with SOTRASTAURIN/AEB071 (10 nM), 1.13 ± 0.061; with SOTRASTAURIN/AEB071 (50 nM) it was 1.12 ± 0.087; with SOTRASTAURIN/AEB071 (100 nM) it was 1.02 ± 0.078. Moreover, the surviving fraction with SOTRASTAURIN/AEB071 (500 nM) was 0.961 ± 0.12; with SOTRASTAURIN/AEB071 (1000 nM), 0.831 ± 0.084; with ABIRATERONE (0.5 nM), 0.965 ± 0.017; with ABIRATERONE (1 nM), 1.01 ± 0.04; in the assay with ABIRATERONE (5 nM) it was 1.04 ± 0.063; with ABIRATERONE (10 nM), 1.04 ± 0.051. The surviving fraction with ABIRATERONE (50 nM) turned out to be 1.12 ± 0.079; in the assay with ABIRATERONE (100 nM), 1.02 ± 0.084; in the assay with ABIRATERONE (500 nM), 1.02 ± 0.063; with ABIRATERONE (1000 nM), 1.04 ± 0.04.
